In experiment [1] the target is BTK (phospho-BTK) in human whole blood (Homo sapiens, UniProt Q06187). Kind of experiment: In vitro PD assay in human whole blood (pBTK assay).
The next experiment concerns the target T1, BTK enzyme (Homo sapiens, UniProt Q06187).
T1 construct: purchased Upstate 14-552
The experiment is described as follows: In vitro BTK kinase assay: BTK-POLYGAT-LS assay. Format: biochemical. The note with it: ATP 10 μM, read-out: IC50 (10uMATP). The gist of the method: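 Human BTK activity was measured with final 10 μM ATP and 100 nM polyGAT substrate in pH 7.5 Tris buffer with 10 mM MgCl2, DTT, Triton X-100 and casein.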

Molecules are shown by their SMILES. pIC50: −log10 of the molar value.

T1 sequence (Q06187 whole entry): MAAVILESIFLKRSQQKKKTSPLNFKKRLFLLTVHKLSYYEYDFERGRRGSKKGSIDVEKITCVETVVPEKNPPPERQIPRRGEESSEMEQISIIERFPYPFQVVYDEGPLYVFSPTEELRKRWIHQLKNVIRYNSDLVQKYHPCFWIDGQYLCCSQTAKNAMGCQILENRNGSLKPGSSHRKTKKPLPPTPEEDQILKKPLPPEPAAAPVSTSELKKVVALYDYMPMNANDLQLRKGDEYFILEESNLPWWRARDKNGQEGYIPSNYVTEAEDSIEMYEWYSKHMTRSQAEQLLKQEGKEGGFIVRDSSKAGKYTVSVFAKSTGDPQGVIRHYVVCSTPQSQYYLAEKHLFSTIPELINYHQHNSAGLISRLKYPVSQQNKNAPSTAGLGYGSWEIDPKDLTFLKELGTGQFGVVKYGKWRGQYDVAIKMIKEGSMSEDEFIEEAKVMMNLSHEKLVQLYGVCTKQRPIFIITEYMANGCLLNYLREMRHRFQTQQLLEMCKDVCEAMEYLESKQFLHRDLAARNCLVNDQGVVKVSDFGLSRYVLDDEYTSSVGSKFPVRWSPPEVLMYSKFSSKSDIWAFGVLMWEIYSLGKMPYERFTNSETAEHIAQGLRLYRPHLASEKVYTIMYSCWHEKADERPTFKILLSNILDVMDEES
BTK (phospho-BTK) in human whole blood, sequence (Q06187 whole entry): as above

As for `CC(C)(C)OC1CN(C(=O)NC2CCCCc3cc(-c4ccnc(Nc5cnn(C6CCOCC6)c5)n4)ccc32)C1` (centres unmarked) [Example I-179, 3-(tert-butoxy)-N-(2-(2-((1-(tetrahydro-2H-pyran-4-yl)-1H-pyrazol-4-yl)amino)pyrimidin-4-yl)-6,7,8,9-tetrahydro-5H-benzo[7]annulen-5-yl)azetidine-1-carboxamide], the pIC50 (commonly the negative decadic logarithm of the IC50, by convention in mol/L) was > 6.30 in experiment [1] and > 8.00 at BTK enzyme.
The matching figures for `Cn1cc(Nc2nccc(-c3ccc(CNC(=O)c4cnn(C(C)(C)C)c4)c(CCO)c3)n2)cn1` [Example I-191, 1-(tert-butyl)-N-(2-(2-hydroxyethyl)-4-(2-((1-methyl-1H-pyrazol-4-yl)amino)pyrimidin-4-yl)benzyl)-1H-pyrazole-4-carboxamide]: > 6.30 and > 8.00.
In the case of `CC(C)OC1CN(C(=O)NC2CCCCc3cc(-c4ccnc(Nc5cnn(CC(C)(C)O)c5)n4)ccc32)C1` (centres unmarked) [Example I-336, N-[2-[2-[[1-(2-hydroxy-2-methyl-propyl)pyrazol-4-yl]amino]pyrimidin-4-yl]-6,7,8,9-tetrahydro-5H-benzo[7]annulen-5-yl]-3-isopropoxy-azetidine-1-carboxamide], the figures for the pIC50 (in experiment [1]; on BTK enzyme) were > 6.30 and > 8.00, respectively.
Turning to `CC(C)(C)C1CCN(C(=O)NCc2ccc(-c3ccnc(Nc4cnn([C@H]5CCNC5)c4)n3)cc2C(F)(F)F)C1` (stereo partly drawn) [Example I-316, 3-tert-butyl-N-[[4-[2-[[1-[(3S)-pyrrolidin-3-yl]pyrazol-4-yl]amino]pyrimidin-4-yl]-2-(trifluoromethyl)phenyl]methyl]pyrrolidine-1-carboxamide], the pIC50 was > 6.30 in experiment [1] and > 8.00 on BTK enzyme.
Take `Cc1cc(-c2ccnc(Nc3cnn(C)c3)n2)ccc1CNC(=O)N1CC[C@H](C(C)(C)C)C1` [Example I-253, (3R)-3-tert-butyl-N-[[2-methyl-4-[2-[(1-methylpyrazol-4-yl)amino]pyrimidin-4-yl]phenyl]methyl]pyrrolidine-1-carboxamide]: the pIC50 in experiment [1] is > 6.30; on BTK enzyme, > 8.00.
For `Cn1cc(Nc2nccc(-c3cc(Cl)c(CNC(=O)c4cnc(C(C)(C)C)s4)cc3F)n2)cn1` [Example I-118, 2-(tert-butyl)-N-(2-chloro-5-fluoro-4-(2-((1-methyl-1H-pyrazol-4-yl)amino)pyrimidin-4-yl)benzyl)thiazole-5-carboxamide], in that order: > 6.30 and > 8.00.
For `CCn1cc(Nc2nccc(-c3ccc4c(c3)CCCCC4NC(=O)N3CCC(C(C)(C)C)C3)n2)cn1` (centres unmarked) [Example I-328], in that order: > 6.30 and > 8.00.
In the case of `Cc1cc(-c2cc(Nc3cc4n(n3)CCNC4)ncn2)ccc1CNC(=O)c1cnc(C(C)(C)C)s1` [Example I-270, 2-tert-butyl-N-[[2-methyl-4-[6-(4,5,6,7-tetrahydropyrazolo[1,5-a]pyrazin-2-ylamino)pyrimidin-4-yl]phenyl]methyl]thiazole-5-carboxamide], the pIC50 was > 6.30 in experiment [1] and > 8.00 on BTK enzyme.
For `CC(C)OC1CN(C(=O)NC2CCCCc3cc(-c4ccnc(Nc5cnn(C6CCOCC6)c5)n4)ccc32)C1` (centres unmarked) [Example I-172, 3-isopropoxy-N-(2-(2-((1-(tetrahydro-2H-pyran-4-yl)-1H-pyrazol-4-yl)amino)pyrimidin-4-yl)-6,7,8,9-tetrahydro-5H-benzo[7]annulen-5-yl)azetidine-1-carboxamide], in that order: > 6.30 and > 8.00.
The matching figures for `Cc1cc(-c2cc(Nc3cnn(C)n3)ncn2)ccc1CNC(=O)c1cnc(C(C)(C)C)s1` [Example I-67, 2-(tert-butyl)-N-(2-methyl-4-(6-((2-methyl-2H-1,2,3-triazol-4-yl)amino)pyrimidin-4-yl)benzyl)thiazole-5-carboxamide]: 5.82 to 6.30 and > 8.00.
Regarding `Cc1cc(-c2ccnc(Nc3cnn(C[C@H](N)C(=O)O)c3)n2)ccc1CNC(=O)c1cnc(C(C)(C)C)s1` [Example I-130, (S)-2-amino-3-(4-((4-(4-((2-(tert-butyl)thiazole-5-carboxamido)methyl)-3-methylphenyl)pyrimidin-2-yl)amino)-1H-pyrazol-1-yl)propanoic acid], the pIC50 in experiment [1] is > 6.30; at BTK enzyme, > 8.00.
The matching figures for `COCCn1cc(Nc2nccc(-c3ccc4c(c3)CCCC[C@H]4NC(=O)N3CC(OC(C)(C)C)C3)n2)cn1` [Example I-176, (R)-3-(tert-butoxy)-N-(2-(2-((1-(2-methoxyethyl)-1H-pyrazol-4-yl)amino)pyrimidin-4-yl)-6,7,8,9-tetrahydro-5H-benzo[7]annulen-5-yl)azetidine-1-carboxamide]: > 6.30 and > 8.00.
For `Cc1cc(-c2cc(Nc3cc4n(n3)CCN(CCO)C4)ncn2)ccc1CNC(=O)c1cnn(C(C)(C)C)c1` [Example I-233, 1-(tert-butyl)-N-(4-(6-((5-(2-hydroxyethyl)-4,5,6,7-tetrahydropyrazolo[1,5-a]pyrazin-2-yl)amino)pyrimidin-4-yl)-2-methylbenzyl)-1H-pyrazole-4-carboxamide], in that order: > 6.30 and > 8.00.
As to `Cc1cc(-c2ccnc(Nc3cnn([C@@H]4CCN(C)C4)c3)n2)ccc1CNC(=O)c1cnc(C(C)(C)C)s1` [Example I-123, (R)-2-(tert-butyl)-N-(2-methyl-4-(2-((1-(1-methylpyrrolidin-3-yl)-1H-pyrazol-4-yl)amino)pyrimidin-4-yl)benzyl)thiazole-5-carboxamide], the pIC50 is > 6.30 in experiment [1] and > 8.00 on BTK enzyme.
For the compound `CC(C)(C)CN1CCN(Cc2ccc(-c3ccnc(Nc4cnn(CCO)c4)n3)cc2C(F)(F)F)C(=O)C1` [Example I-350], the results for the pIC50 (in experiment [1]; on BTK enzyme) were > 6.30 and > 8.00, respectively.
For `Cc1cc(-c2ccnc(Nc3cnn(C4CCN(C)CC4)c3)n2)ccc1CNC(=O)c1cnc(C(C)(C)C)s1` [Example I-46, 2-(tert-butyl)-N-(2-methyl-4-(2-((1-(1-methylpiperidin-4-yl)-1H-pyrazol-4-yl)amino)pyrimidin-4-yl)benzyl)thiazole-5-carboxamide], in that order: > 6.30 and > 8.00.
For the compound `CC(C)(C)OC1CN(C(=O)NCc2ccc(-c3ccnc(Nc4cnn(CCO)c4)n3)cc2C(F)(F)F)C1` [Example I-205, 3-(tert-butoxy)-N-(4-(2-((1-(2-hydroxyethyl)-1H-pyrazol-4-yl)amino)pyrimidin-4-yl)-2-(trifluoromethyl)benzyl)azetidine-1-carboxamide], the pIC50 in experiment [1] is > 6.30; at BTK enzyme, > 8.00.
For `CC(C)OC1CN(C(=O)NCc2ccc(-c3ccnc(Nc4cnn([C@H]5CCOC5)c4)n3)cc2C(F)(F)F)C1` [Example I-313, 3-isopropoxy-N[[4-[2-[[1-[(3S)-tetrahydrofuran-3-yl]pyrazol-4-yl]amino]pyrimidin-4-yl]-2-(trifluoromethyl)phenyl]methyl]azetidine-1-carboxamide], the pIC50 in experiment [1] was > 6.30; on BTK enzyme, > 8.00.
For `CC(C)(C)OC1CN(C(=O)NC2CCCCc3cc(-c4ccnc(Nc5cnn6c5CCC6)n4)ccc32)C1` (centres unmarked) [Example I-182, 3-(tert-butoxy)-N-(2-(2-((5,6-dihydro-4H-pyrrolo [1,2-b]pyrazol-3-yl)amino)pyrimidin-4-yl)-6,7,8,9-tetrahydro-5H-benzo[7]annulen-5-yl)azetidine-1-carboxamide], the pIC50 in experiment [1] was > 6.30; on BTK enzyme it was > 8.00.
For `Cc1cc(-c2ccnc(Nc3cnn(C[C@H](O)CN)c3)n2)ccc1CNC(=O)c1cnc(C(C)(C)C)s1` [Example I-127, (R)—N-(4-(2-((1-(3-amino-2-hydroxypropyl)-1H-pyrazol-4-yl)amino)pyrimidin-4-yl)-2-methylbenzyl)-2-(tert-butyl)thiazole-5-carboxamide], in that order: 5.82 to 6.30 and > 8.00.
For the compound `CCn1cc(Nc2nccc(-c3ccc(CNC(=O)N4CCC(C(C)(C)C)C4)c(C(F)(F)F)c3)n2)cn1` (centres unmarked) [Example I-297, 3-tert-butyl-N-[[4-[2-[(1-ethylpyrazol-4-yl)amino]pyrimidin-4-yl]-2-(trifluoromethyl)phenyl]methyl]pyrrolidine-1-carboxamide], the pIC50 is > 6.30 in experiment [1] and > 8.00 on BTK enzyme.
Consider `Cc1cc(-c2ccnc(Nc3cnn(C(C)(C)C(=O)NCC(F)(F)F)c3)n2)ccc1CNC(=O)N1CC(OC(C)C)C1` [Example I-312, N-[[4-[2-[[1-[1,1-dimethyl-2-oxo-2-(2,2,2-trifluoroethylamino)ethyl]pyrazol-4-yl]amino]pyrimidin-4-yl]-2-methyl-phenyl]methyl]-3-isopropoxy-azetidine-1-carboxamide], for which the pIC50 is > 6.30 in experiment [1] and > 8.00 at BTK enzyme.
The matching figures for `Cn1cc(Nc2nccc(-c3ccc(CNC(=O)c4cnn(C(C)(C)C)c4)c(C#N)c3)n2)cn1` [Example I-211, 1-(tert-butyl)-N-(2-cyano-4-(2-((1-methyl-1H-pyrazol-4-yl)amino)pyrimidin-4-yl)benzyl)-1H-pyrazole-4-carboxamide]: > 6.30 and > 8.00.
As to `CCCC1CN(C(=O)NCc2ccc(-c3ccnc(Nc4cnn(C)c4)n3)cc2C)C1` [Example I-263, N-[[2-methyl-4-[2-[(1-methylpyrazol-4-yl)amino]pyrimidin-4-yl]phenyl]methyl]-3-propyl-azetidine-1-carboxamide], the pIC50 in experiment [1] was > 6.30; at BTK enzyme, > 8.00.
`Cc1cc(-c2cc(Nc3cc4c(cn3)CN(CCO)CC4)ncn2)ccc1CNC(=O)c1cnc(C(C)(C)C)s1` [Example I-268, 2-tert-butyl-N-[[4-[6-[[7-(2-hydroxyethyl)-6,8-dihydro-5H-2,7-naphthyridin-3-yl]amino]pyrimidin-4-yl]-2-methyl-phenyl]methyl]thiazole-5-carboxamide]: the pIC50 in experiment [1] was > 6.30; at BTK enzyme it was > 8.00.

The values are drawn from patent US10759783B2, “Biaryl inhibitors of Bruton'S tyrosine kinase” (BIOGEN MA INC., priority 2013, dated 2020).
